Experimental data taken from patent US12246076B2, “Radiolabeled compounds for in vivo imaging of gastrin-releasing peptide receptor (GRPR) and treatment of GRPR-related disorders” (PROVINCIAL HEALTH SERVICES AUTHORITY, priority 2022, dated 2025).
Blank lines part the entries; values can stand above or below the compound they belong to. Numbered stars: 1 amine (or outer) side, 2 acyl side, 3 side chain; on linkers, the order of the positions; unused ones are H or OH. Square brackets hold non-standard residues; d marks the D form. Peptide text beside a SMILES is read from it. * marks the point of attachment. DOTA = O=C(O)CN1CCN(CC(=O)O)CCN(CC(=O)*)CCN(CC(=O)O)CC1; NMeH = CN[C@@H](Cc1c[nH]cn1)C(=O)O; X1 = O=C(CN1CCC(N[*:1])CC1)[*:2]; Tle = CC(C)(C)[C@H](N)C(=O)O; Thz = O=C(O)[C@@H]1CSCN1

How the values were obtained:
GRPR = biological target: T1, GRPR (Homo sapiens, UniProt P30550); experiment: In vitro competition binding assay, displacement of [^125I-Tyr^4]bombesin on GRPR-expressing PC-3 cells; details: n = 2-3, read-out: Binding affinities Ki Mean
T1 construct: endogenous in cells; host or cells: PC-3 prostate cancer cells
T1 sequence (P30550 whole entry): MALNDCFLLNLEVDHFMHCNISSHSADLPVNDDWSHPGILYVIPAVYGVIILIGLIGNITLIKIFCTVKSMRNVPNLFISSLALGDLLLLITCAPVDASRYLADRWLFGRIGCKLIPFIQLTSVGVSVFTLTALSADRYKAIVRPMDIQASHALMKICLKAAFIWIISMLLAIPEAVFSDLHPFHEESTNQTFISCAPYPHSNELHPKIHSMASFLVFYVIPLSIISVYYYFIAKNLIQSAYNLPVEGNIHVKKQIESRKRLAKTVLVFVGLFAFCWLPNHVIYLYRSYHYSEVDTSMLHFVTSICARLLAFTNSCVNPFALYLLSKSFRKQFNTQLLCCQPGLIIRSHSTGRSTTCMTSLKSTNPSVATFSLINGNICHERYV
Method: PC-3 cells were seeded at 2×10^5 cells/well in 24-well poly-D-lysine plates 24-48 hours prior to the experiment. The growth medium was replaced by 400 μL of reaction medium (RPMI 1640 containing 2 mg/mL BSA, 4.8 mg/mL HEPES, 1 U/mL penicillin G and 1 μg/mL streptomycin). Cells were incubated for 30-60 min at 37° C. […] The cells were incubated with moderate agitation for 1 h at 27° C., washed twice with ice-cold PBS, harvested by trypsinization, and measured for radioactivity on the gamma counter. Data were analyzed using nonlinear regression (one binding site model for competition assay) with GraphPad Prism 8.
In vitro competition binding assays were performed according to the procedure outlined in Example 1.

in vivo = details: male, NRG, mouse, iv, total radioactivity
Method: (§1) All imaging and biodistribution studies were performed using male NOD.Cg-Rag1^tm1MoM II2rg^tm1WI/SzJ (NRG) mice and conducted according to the guidelines established by the Canadian Council on Animal Care and approved by Animal Ethics Committee of the University of British Columbia. For tumor inoculations, mice were anesthetized by inhalation with 2% isoflurane in oxygen and implanted subcutaneously with 5×10^6 PC-3 cells below the left shoulder. Imaging and biodistribution studies were performed only after tumors grew to 5-8 mm in diameter.
(§2) For PET/CT imaging studies, ˜3-4 MBq of the ^68Ga-labeled tracer was injected through the tail vein. Mice were allowed to recover and roam freely in the cages after injecting the tracer. At 45 min post-injection (p.i.), mice were sedated again and positioned on the scanner. First, a 10 min CT scan was conducted for localization and attenuation correction for reconstruction of PET images, before a 10 min PET image was acquired. Heating pads were used during the entire procedure to keep the mice warm. For ex vivo biodistribution studies, mice were injected with ˜1.5-3 MBq of the ^68Ga-labeled tracer. At 1 h p.i., mice were euthanized, blood was drawn from heart, and organs/tissues of interest were collected, rinsed with PBS, blotted dry, weighed, and counted using an automated gamma counter. The uptake in each organ/tissue was normalized to the injected dose and expressed as the percentage of the injected dose per gram of tissue (% ID/g).
(§3) All imaging and biodistribution studies were performed using male NOD.Cg-Rag1tm1Mom II2rgtm1WjI/SzJ (NRG) mice and conducted according to the guidelines established by the Canadian Council on Animal Care and approved by Animal Ethics Committee of the University of British Columbia. For tumor inoculations, mice were anesthetized by inhalation with 2% isoflurane in oxygen and implanted subcutaneously with 5×10^6 PC-3 cells below the left shoulder. Imaging and biodistribution studies were performed only after tumors grew to 5-8 mm in diameter.
(§4) For PET/CT imaging studies, ˜5 MBq of the ^68Ga-labeled tracer was injected through the tail vein. Mice were allowed to recover and roam freely in the cages after injecting the tracer. At 45 min post-injection (p.i.), mice were sedated again and positioned on the scanner. First, a 10 min CT scan was conducted for localization and attenuation correction for reconstruction of PET images, before a 10 min PET image was acquired. Heating pads were used during the entire procedure to keep the mice warm. For ex vivo biodistribution studies, mice were injected with ˜3 MBq of the 68Ga-labeled tracer. At 1 h p.i., mice were euthanized, blood was drawn from heart, and organs/tissues of interest were collected, rinsed with PBS, blotted dry, weighed, and counted using an automated gamma counter.

[1] = Ex vivo biodistribution in PC-3 tumor-bearing mice; details: male, NRG, mouse, iv, total radioactivity, 1 h post-injection, mice bearing PC-3 tumor xenografts, n = 4
Method: as §1, §2, §3, §4

Ki (GRPR): 35.7 nM
SMILES: CC(C)C[C@H](NC(=O)[C@H](Cc1cnc[nH]1)NC(=O)CNC(=O)[C@@H](NC(=O)[C@H](C)NC(=O)[C@H](Cc1cn(C)c2ccccc12)NC(=O)[C@H](CCC(N)=O)NC(=O)[C@H](N)Cc1ccccc1)C(C)C)C(=O)N1CSC[C@H]1C(N)=O [LW01136]

Ki (GRPR): 25.9 nM
SMILES: Cc1cccc2[nH]cc(C[C@H](NC(=O)[C@H](CCC(N)=O)NC(=O)[C@H](N)Cc3ccccc3)C(=O)N[C@@H](C)C(=O)N[C@H](C(=O)NCC(=O)N[C@@H](Cc3c[nH]cn3)C(=O)N[C@@H](CC(C)C)C(=O)N3CSC[C@H]3C(N)=O)C(C)C)c12 [LW01183]

Ki (GRPR): 8.77 nM
SMILES: CC(C)C[C@H](NC(=O)[C@H](Cc1cnc[nH]1)NC(=O)CNC(=O)[C@@H](NC(=O)[C@H](C)NC(=O)[C@H](Cc1c[nH]c2ccccc12)NC(=O)[C@H](CCC(N)=O)NC(=O)[C@H](N)Cc1ccccc1)C(C)C)C(=O)N1CSC[C@H]1C(N)=O [LW01085]

tissue uptake at 1 h (in vivo; Biodistribution Adrenal Mean): 2.07 %ID/g
tissue uptake at 1 h (in vivo; Biodistribution Blood Mean): 6.88 %ID/g
tissue uptake at 1 h (in vivo; Biodistribution Bone Mean): 0.47 %ID/g
tissue uptake at 1 h (in vivo; Biodistribution Brain Mean): 0.15 %ID/g
tissue uptake at 1 h (in vivo; Biodistribution Fat Mean): 0.32 %ID/g
tissue uptake at 1 h (in vivo; Biodistribution Heart Mean): 1.62 %ID/g
tissue uptake at 1 h (in vivo; Biodistribution Kidneys Mean): 6.36 %ID/g
tissue uptake at 1 h (in vivo; Biodistribution Large Intestine Mean): 1.07 %ID/g
tissue uptake at 1 h (in vivo; Biodistribution Liver Mean): 2.88 %ID/g
tissue uptake at 1 h (in vivo; Biodistribution Lungs Mean): 4.59 %ID/g
tissue uptake at 1 h (in vivo; Biodistribution Muscle Mean): 0.52 %ID/g
tissue uptake at 1 h (in vivo; Biodistribution Pancreas Mean): 4.4 %ID/g
tissue uptake at 1 h (in vivo; Biodistribution Small Intestine Mean): 1.7 %ID/g
tissue uptake at 1 h (in vivo; Biodistribution Spleen Mean): 0.88 %ID/g
tissue uptake at 1 h (in vivo; Biodistribution Stomach Mean): 0.98 %ID/g
tissue uptake at 1 h (in vivo; Biodistribution Testes Mean): 1.28 %ID/g
tissue uptake at 1 h ([1]; PC-3 tumor, Biodistribution PC3 tumor Mean): 11.4 %ID/g
tissue uptake at 1 h ([1]; seminal, Biodistribution Seminal Mean): 0.33 %ID/g
SMILES: CC(C)C[C@H](NC(=O)[C@H](Cc1cnc[nH]1)N(C)C(=O)CNC(=O)[C@@H](NC(=O)[C@H](C)NC(=O)[C@H](Cc1c[nH]c2ccccc12)NC(=O)[C@H](Cc1c[nH]cn1)NC(=O)[C@@H](Cc1ccccc1)NC(=O)CN1CCC(NC(=O)CN2CCN(CC(=O)O)CCN(CC(=O)O)CCN(CC(=O)O)CC2)CC1)C(C)(C)C)C(=O)N1CSC[C@H]1C(N)=O [^68Ga-LW01142, metal not drawn] ({DOTA}-[X1][dF]HWA[Tle]G[NMeH]L[Thz]-NH2)

Ki (GRPR): 9 nM
SMILES: CC(C)C[C@H](NC(=O)[C@H](Cc1cnc[nH]1)N(C)C(=O)CNC(=O)[C@@H](NC(=O)[C@H](C)NC(=O)[C@H](Cc1c[nH]c2ccccc12)NC(=O)[C@H](CCC(N)=O)NC(=O)[C@H](N)Cc1ccccc1)C(C)C)C(=O)N1CSC[C@H]1C(N)=O [LW01088, D-Phe-Gln-Trp-Ala-Val-Gly-NMe-His-Leu-Thz-NH2]

Ki (GRPR): 13.5 nM
SMILES: Cc1cccc2c(C[C@H](NC(=O)[C@H](CCC(N)=O)NC(=O)[C@H](N)Cc3ccccc3)C(=O)N[C@@H](C)C(=O)N[C@H](C(=O)NCC(=O)N[C@@H](Cc3c[nH]cn3)C(=O)N[C@@H](CC(C)C)C(=O)N3CSC[C@H]3C(N)=O)C(C)C)c[nH]c12 [LW02007]

Ki (GRPR): 166 nM
SMILES: CC(C)C[C@H](NC(=O)[C@H](Cc1c[nH]cn1)NC(=O)CNC(=O)[C@@H](NC(=O)[C@H](C)NC(=O)[C@H](Cc1c[nH]c2ncccc12)NC(=O)[C@H](CCC(N)=O)NC(=O)[C@H](N)Cc1ccccc1)C(C)C)C(=O)N1CSC[C@H]1C(N)=O [LW02013]

Ki (GRPR): 9.38 nM
SMILES: CC(C)C[C@H](NC(=O)[C@H](Cc1c[nH]cn1)NC(=O)CNC(=O)[C@@H](NC(=O)[C@H](C)NC(=O)[C@H](Cc1c[nH]c2c(F)cccc12)NC(=O)[C@H](CCC(N)=O)NC(=O)[C@H](N)Cc1ccccc1)C(C)C)C(=O)N1CSC[C@H]1C(N)=O [LW01177, D-Phe-Gln-7-F-Trp-Ala-Val-Gly-His-Leu-Thz-NH2]

Ki (GRPR): 202 nM
SMILES: CC(C)C[C@H](NC(=O)[C@H](Cc1c[nH]cn1)NC(=O)CNC(=O)[C@@H](NC(=O)[C@H](C)NC(=O)[C@H](Cc1c[nH]c2ccccc12)NC(=O)[C@H](CCC(N)=O)NC(=O)[C@H](N)Cc1ccccc1)C1CC1)C(=O)N1CSC[C@H]1C(N)=O [LW02016]
